# Literature values in article PMC5748270 (Organic & biomolecular chemistry, 2017).
# Columns and labels:
# [1] = system: B16 melanoma; settings: comparably to mitomycin C
# [2] = system: B16 melanoma cells
# [3] = system: HIV
# [4] = system: HSV-2
# [5] = system: Plasmodium falciparum K1; settings: selectivity on par with artesunate
# [6] = system: HSV-1; settings: read-out: HSV-1 antiviral EC50
molecule,measurement,setting,value
"O=c1c(O)cccc(O)c1O [3,7-dHT, 3,7-Dihydroxytropolones]",Lifespan of mice bearing B16 melanoma,[1],increases the lifespan
same,Activity against B16 melanoma cells relative to αHTs,[2],an order of magnitude greater than αHTs
same,cell-based HIV antiviral activity,[3],promising cell-based HIV antiviral activity
"Nc1nc2c(ncn2COCCO)c(=O)[nH]1 [ACV, acyclovir]",Potency against HSV-2 relative to HSV-1,[4]; obtained previously under identical conditions,nearly an order of magnitude less potent
O=C(O)c1cc(O)c(O)c(=O)c(O)c1 [puberulic acid],Antimalarial activity,[5],potent antimalarial activity
manicol,EC50,[6],350 nM
same,EC50,[4]; read-out: HSV-2 antiviral EC50,580 nM
